Laboratory results taken from patent US8278072B1, “Method for synthesis of sialylated products using reversible sialylation” (Health Research, Inc., priority 2007, dated 2012).
Marks after values point to notes of the source that are not given here.

What was measured:
Type in all cases: biochemical
ST3Gal-II [1] = target: T1, ST3Gal-II (Rattus norvegicus, UniProt Q11205); test: Donor specificity for reverse sialylation, ST3Gal-II; settings: 0.05 mM donor, […] 5′-CMP, acceptor 5 mM D-Fuc(1,3GalNAc(-O-Bn, 3 mU ST3Gal-II)); zero = slightly below background
T1 construct: purchased Calbiochem
T1 sequence (Q11205 1-350): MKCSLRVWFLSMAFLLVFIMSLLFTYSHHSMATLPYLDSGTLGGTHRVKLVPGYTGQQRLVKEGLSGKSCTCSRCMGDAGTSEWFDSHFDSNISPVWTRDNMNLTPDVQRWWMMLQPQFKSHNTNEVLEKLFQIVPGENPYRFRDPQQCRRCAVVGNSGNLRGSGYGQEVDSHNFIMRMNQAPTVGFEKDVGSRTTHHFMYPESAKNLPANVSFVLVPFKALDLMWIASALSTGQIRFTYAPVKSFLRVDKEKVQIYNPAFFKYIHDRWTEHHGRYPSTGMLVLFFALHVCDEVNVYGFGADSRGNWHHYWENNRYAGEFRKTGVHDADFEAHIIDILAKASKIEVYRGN
Text: We determined if reverse sialylation was more pronounced for ST3Gal-II in comparison to other sialyltransferases. Thus two other cloned rat sialyltransferases ST3Gal-III (or α2,3(N)ST) and ST6Gal-I (or α2,6(N)ST) (14) were examined. For these studies, we generated two molecules: i) [9-^3H]NeuAcα2,6Galβ1,4GlcNAcβ-O—Al (Al-Allyl) was made by the reaction of Galβ1,4GlcNAcβ-O—Al and CMP-[9-^3H]NeuAc in the presence of α2,6sialyltransferase, ST6Gal-I. (The radioactive product was separated using Biogel P2 column using a protocol similar to that described above.); and ii) [9-^3H]NeuAcα2,3Galβ1,4 GlcNAcβ-O—Al was similarly produced by reacting Galβ1,4GlcNAcβ-O—Al and CMP-[9-^3H]NeuAc in the presence of α2,3sialyltransferase ST3Gal-III. […] However, it is efficiently sialylated by both ST3Gal-III and ST6Gal-I. The ability of these two radiolabeled molecules ([14] and [15]) to act as [9-^3H]NeuAc donors was assayed in studies (Table IV) where the compounds were mixed with excess 5′-CMP, enzyme and acceptors with benzyl aglycan group. C18 cartridges were then used to measure the extent of [9-^3H]NeuAc transferred to acceptor using reaction scheme-II. Because all acceptors used in this table are efficiently sialylated by enzymes listed in the adjacent columns, these experiments essentially measure the amount of CMP-NeuAc formed using particular donor-enzyme pairs. […]

ST6Gal-I = target: T2, ST6Gal-I (Rattus norvegicus, UniProt P13721); test: Donor specificity for reverse sialylation, ST6Gal-I; settings: 0.05 mM donor, 0.8 mM 5′-CMP, 3 mU ST6Gal-I
T2 construct: purchased Calbiochem
T2 sequence (P13721 1-403): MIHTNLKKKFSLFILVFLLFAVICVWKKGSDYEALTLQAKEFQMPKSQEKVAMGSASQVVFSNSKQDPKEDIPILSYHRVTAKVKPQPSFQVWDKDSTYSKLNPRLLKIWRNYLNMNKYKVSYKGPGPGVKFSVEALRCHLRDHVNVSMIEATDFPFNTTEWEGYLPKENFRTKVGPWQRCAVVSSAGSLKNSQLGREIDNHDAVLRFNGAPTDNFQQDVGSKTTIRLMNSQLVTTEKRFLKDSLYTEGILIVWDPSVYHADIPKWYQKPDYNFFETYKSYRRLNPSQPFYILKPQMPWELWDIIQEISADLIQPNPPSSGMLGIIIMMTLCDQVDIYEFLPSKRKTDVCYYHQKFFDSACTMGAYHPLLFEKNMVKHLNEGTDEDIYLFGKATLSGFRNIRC
Text: (§1) We determined if reverse sialylation was more pronounced for ST3Gal-II in comparison to other sialyltransferases. Thus two other cloned rat sialyltransferases ST3Gal-III (or α2,3(N)ST) and ST6Gal-I (or α2,6(N)ST) (14) were examined. For these studies, we generated two molecules: i) [9-^3H]NeuAcα2,6Galβ1,4GlcNAcβ-O—Al (Al-Allyl) was made by the reaction of Galβ1,4GlcNAcβ-O—Al and CMP-[9-^3H]NeuAc in the presence of α2,6sialyltransferase, ST6Gal-I. (The radioactive product was separated using Biogel P2 column using a protocol similar to that described above.); and ii) [9-^3H]NeuAcα2,3Galβ1,4 GlcNAcβ-O—Al was similarly produced by reacting Galβ1,4GlcNAcβ-O—Al and CMP-[9-^3H]NeuAc in the presence of α2,3sialyltransferase ST3Gal-III. […] However, it is efficiently sialylated by both ST3Gal-III and ST6Gal-I. The ability of these two radiolabeled molecules ([14] and [15]) to act as [9-^3H]NeuAc donors was assayed in studies (Table IV) where the compounds were mixed with excess 5′-CMP, enzyme and acceptors with benzyl aglycan group. C18 cartridges were then used to measure the extent of [9-^3H]NeuAc transferred to acceptor using reaction scheme-II. Because all acceptors used in this table are efficiently sialylated by enzymes listed in the adjacent columns, these experiments essentially measure the amount of CMP-NeuAc formed using particular donor-enzyme pairs.
(§2) Thus, reverse sialylation takes place with ST3Gal-II.

ST3Gal-II [2] = target: T1, ST3Gal-II; test: Exchange of radiolabeled sialyl residues in bovine brain gangliosides (TLC); settings: bovine brain ganglioside mixture, CMP-[9-3H]NeuAc or CMP-[14C]NeuAc
Text: Rat recombinant ST3Gal-II (α2,3(0)ST) was purchased from Calbiochem. Three different lots of ST3Gal-II purchased from Calbiochem and used in this study yielded similar results. CMP-NeuAc was obtained from Sigma. All enzymatic sialylation reactions were typically carried out in NaCa Codylate buffer pH6.0 in presence of enzyme acceptor CMP-[9-^3H]NeuAc or (NEN-DuPont) CMP[^14C]NeuAc. The concentration of total CMP-NeuAc was adjusted in individual reactions by supplementing with non-radioactive CMP-NeuAc. Products formed were separated using different chromatograph procedures. • a) Gel chromatography on Biogel P2 and P6 columns: A Biogel P2 column or Biogel P6 column (Fine Mesh; 1.0×116.0 cm) was used with 0.1 M pyridine acetate (pH5.4) as the eluent at room temperature. […] The first peak of radioactivity emerging in this void volume was collected and lyophilized to dryness. […]
Both [9-^3H] and [^14C] sialic acid labeled bovine brain ganglioside mixtures were subjected to TLC using CHcl3:CH3OH:0.2% aqueous CaCl2 (v/v 60:40:9) as the solvent system. The radioactivities were located on the TLC plates by scraping silica gel from 0.5 cm width segments of the TLC plates and then counting the radioactivity after soaking silica in 2.0 ml water by scintillation counting. […]

ST3Gal-III = target: T3, ST3Gal-III (Rattus norvegicus, UniProt Q02734); test: Donor specificity for reverse sialylation, ST3Gal-III; settings: 0.05 mM donor, 0.8 mM 5′-CMP
T3 construct: purchased Calbiochem
T3 sequence (Q02734 1-374): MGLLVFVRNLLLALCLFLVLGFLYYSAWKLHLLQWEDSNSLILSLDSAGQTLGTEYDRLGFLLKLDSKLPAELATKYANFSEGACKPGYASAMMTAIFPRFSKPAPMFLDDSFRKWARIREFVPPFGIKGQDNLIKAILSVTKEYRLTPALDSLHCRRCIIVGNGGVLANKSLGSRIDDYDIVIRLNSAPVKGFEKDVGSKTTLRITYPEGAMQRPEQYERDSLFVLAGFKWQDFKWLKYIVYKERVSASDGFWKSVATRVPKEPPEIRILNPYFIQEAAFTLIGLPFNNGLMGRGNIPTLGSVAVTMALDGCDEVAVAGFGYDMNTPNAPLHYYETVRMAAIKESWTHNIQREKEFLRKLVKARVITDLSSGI
Text: as §1, §2

**Q.** Which results are given for “[9-^3H]NeuAcα2,6Galβ1,4GlcNAcβ-O—Al [[14]]”?
**A.** Radiolabeled acceptor/product formed (ST3Gal-II [1]): <0* CPM; Radiolabeled acceptor/product formed (ST6Gal-I; acceptor 2.5 mM Galβ1,4GlcNAcβ1,3Galβ1,4GlcNAcβ-O-Bn): 45 CPM; Radiolabeled acceptor/product formed (ST6Gal-I; acceptor 2.5 mM Galβ1,4GlcNAcβ1,6(Galβ1,3)GalNAcα-O-Bn): 36 CPM; Radiolabeled acceptor/product formed (ST6Gal-I; acceptor 2.5 mM Galβ1,4GlcNAcβ-O-Bn): 129 CPM

**Q.** GT1b was tested. Which “Exchange of sialyl residues with CMP-sialic acid by ST3Gal-II” value (ST3Gal-II [2]) did it give?
**A.** exchangeable

**Q.** With “[9-^3H]NeuAcα2,3Galβ1,4 GlcNAcβ-O—Al [[15]]” as the substance, how does the Radiolabeled acceptor/product formed (ST3Gal-III; acceptor 2.5 mM Gal(1,4GlcNAc(1,3Gal(1,4GlcNAc(-O-Bn, 3 mU ST3Gal-III))))) read?
**A.** 24 CPM

**Q.** What about the Radiolabeled acceptor/product formed (ST3Gal-III; acceptor 2.5 mM Galβ1,4GlcNAcβ1,6(Galβ1,3)GalNAcα-O-Bn, 3 mU ST3Gal-III) of the same substance?
**A.** 27 CPM

**Q.** And the Radiolabeled acceptor/product formed (ST3Gal-III; acceptor 2.5 mM Galβ1,4GlcNAcβ-O-Bn, 3 mU ST3Gal-III)?
**A.** 5 CPM

**Q.** What about the Radiolabeled acceptor/product formed (ST3Gal-II [1]) of the same substance?
**A.** <0* CPM

**Q.** With GD1a as the substance, how does the “Exchange of sialyl residues with CMP-sialic acid by ST3Gal-II” value (ST3Gal-II [2]) read?
**A.** exchangeable
